“And” between values parts separate entries of the source, which are not always exact repeats. Equal entries are not always repeated.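 Growth conditions: 96-well plates. Treatment: test compound, 48 hours, 5 concentrations. Analysis: linear interpolation between bracketing concentrations; unreached endpoints set to highest concentration. Abbreviation: GI50, concentration required for 50% inhibition of growth. Definition used: TGI = concentration required for complete inhibition of growth.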 Where a SMILES comes first, the peptide text is derived from it. [ ]: non-standard residue; d: D form. Ac5c = NC1(C(=O)O)CCCC1
Key:
Experiment in all cases: NCI anticancer screen, dose series, 48 h
[1] = test system: A498 renal
[2] = test system: HS 578T breast
[3] = test system: NCI-H23 lung
[4] = test system: SNB-75 CNS
[5] = test system: DMS 114 small cell lung
[6] = test system: KM20L2 colon
[7] = test system: M19-MEL melanoma
[8] = test system: DLD-1 colon
[9] = test system: LXFL 529 NSCLC

Row | SMILES | GI50 [1] | TGI [1] | GI50 [2] | TGI [2] | GI50 [3] | TGI [3] | GI50 [4] | TGI [4] | TGI [5] | TGI [6] | TGI [7] | TGI [8] | TGI [9]
1 | O=C1c2ccccc2-c2c1c1ccccc1c(=O)n2CCCNCCCn1ccnc1 | 2.05 µM | 7.83 µM | 0.545 µM | 5 µM | 0.411 µM | 1.53 µM | 2.61 µM | 9.84 µM |  |  |  |  | 
2 | Nc1ccc(N(S(=O)(=O)c2ccccc2)S(=O)(=O)c2ccccc2)c(Cl)c1 |  | 98.2 µM |  | > 100 µM |  | > 100 µM |  | > 100 µM |  |  |  |  | 
3 | COc1cc(/C=C(\C#N)C(=O)c2ccccc2)ccc1OCc1ccccc1 |  |  |  |  |  | > 100 µM |  |  | > 100 µM | > 100 µM | > 100 µM |  | 
4 | CN1CCN(CCCN)CC1 |  | > 100 µM |  | > 100 µM |  | > 100 µM |  | > 100 µM |  |  |  |  | 
5 | Cc1cc(C)c([O-])c(CN(C)CCN(C)Cc2cc(C)cc(C)c2[O-])c1.O=C([O-])c1cccc(C(=O)[O-])n1.[Ti+4] | 3.72 µM | > 100 µM | 2.29 µM | > 100 µM | 2.03 µM | 5.06 µM | 1.67 µM | 5.65 µM |  |  |  |  | 
6 | CC(O)c1cccc(NCc2c3ccccc3c(=O)n3c2oc2ccccc23)c1 (stereo not given) | 1.61 µM | 4.93 µM | 4.43 µM | 57.4 µM | 9.41 µM | 26.9 µM | 1.75 µM | 5.76 µM |  |  |  |  | 
7 | O=Cc1ccc(-c2cc(C=O)c(-c3cccs3)[nH]2)s1 |  | 5.73 µM and 4.49 µM | > 100 µM | 75 µM and > 100 µM | > 100 µM | 75 µM and > 100 µM | 29.5 µM | 52.2 µM and > 100 µM |  |  |  |  | 
8 | O=C1Nc2ccc(C(=O)c3ccco3)cc2/C1=C/c1cc(Cl)c(O)c(Cl)c1 | 3.69 µM | 9.72 µM | 4.94 µM | > 21.7 µM | 4.74 µM | 21.7 µM | 6.16 µM | > 25 µM |  |  |  |  | 
9 | CCOC(=O)C(Cc1c[nH]c2ccc(N)cc12)(NC(C)=O)C(=O)OCC |  |  | > 1000 µM | > 1000 µM | > 1000 µM | > 1000 µM | > 1000 µM | > 1000 µM |  |  |  |  | 
10 | Cc1cc(I)cc(CN(C)CCCN2CCSCC2)c1O | 26.4 µM | 51.3 µM | 19.1 µM | 48.3 µM | 23.5 µM | 65.1 µM | 30.6 µM | > 100 µM |  |  |  |  | 
11 | CC12OC(c3ccccc3)=CC(c3ccc(Cl)cc3)=C1C(c1ccccc1)=CC2=O (stereo not given) | > 100 µM | > 100 µM | > 100 µM | > 100 µM | 41.5 µM | > 100 µM | 33.4 µM | > 100 µM |  |  |  |  | 
12 | COC(=O)CCc1cc(OC)c2c(c1)C(C(=O)OC)C(c1ccc(OC)c(OC)c1)O2 (stereo not given) | > 100 µM | > 100 µM | > 100 µM and 43.4 µM | > 100 µM |  | > 100 µM |  | 50.6 µM |  |  |  |  | 
13 | CN[C@@H](C)C(=O)N[C@H](C(=O)N1CCC[C@H]1C(=O)N[C@H]1c2ccccc2C[C@H]1OCC#CC#CCO[C@@H]1Cc2ccccc2[C@@H]1NC(=O)[C@@H]1CCCN1C(=O)[C@@H](NC(=O)[C@H](C)NC)C1CCCCC1)C1CCCCC1 | 8.8 µM | 25.1 µM | 4.62 µM | 12.1 µM | 0.796 µM | 6.98 µM | < 0.01 µM | 1.16 µM |  |  |  |  | 
14 | CC(C)c1ccc(C(=O)Nc2nc3ccc(O)cc3s2)cc1 | 2.2 µM | 9.91 µM | 11.4 µM | > 100 µM | 3.52 µM | > 100 µM | 9.18 µM | 73.2 µM |  |  |  |  | 
15 | CSc1ccc(C2=NN(C(=O)c3ccc(F)cc3)C(c3ccc(F)cc3)C2)cc1 (stereo not given) | 19.6 µM | 34.9 µM | 34.2 µM | 64.2 µM | 18.2 µM | 36.2 µM | 13.1 µM | 26 µM |  |  |  |  | 
16 | COc1cc(C(=O)/C(C)=C/c2c[nH]c3ccccc23)cc(OC)c1OC | 0.0025 µM | 0.00916 µM | 0.00478 µM | 48 µM | 0.00516 µM | > 100 µM | 0.00334 µM | 16.1 µM |  |  |  |  | 
17 | Cc1ccccc1NC(=O)N/C(N)=N/c1nc(-c2cccc([N+](=O)[O-])c2)cs1 | 2.39 µM | 7.69 µM | 2.17 µM | 7.31 µM | 1.94 µM | 6.49 µM | 1.28 µM | 3.62 µM |  |  |  |  | 
18 | NC1(C(=O)NC2(C(=O)O)CCCC2)CCCC1 (H-[Ac5c]-[Ac5c]-OH) |  | > 100 µM |  | > 100 µM |  | > 100 µM |  | > 100 µM |  |  |  |  | 
19 | COc1cc(/C=C/C(=O)CC(=O)/C=C/c2cc(OC)c(OC)c(OC)c2)cc(OC)c1OC | 10.4 µM | 42.9 µM | 3 µM | 9.51 µM | 3.34 µM | 20.2 µM | 3.89 µM | 50.5 µM |  |  |  |  | 
20 | COc1cc(OC)cc(C2CC(=O)Nc3c2c(C)nn3-c2nc3ccccc3[nH]2)c1 (stereo not given) | 2.11 µM | 4.69 µM | 3.06 µM | 39.9 µM | 2.79 µM | 7.73 µM | 3.47 µM | 9.65 µM |  |  |  |  | 
21 | Nc1c(C(=O)c2ccc(Cl)cc2)sc(Nc2ccccc2)c1-c1nc2ccccc2s1 | 3.67 µM | 19.1 µM | 2.56 µM | 26.9 µM | 1.64 µM | 18.5 µM | 1.89 µM | 9.5 µM |  |  |  |  | 
22 | CC(=O)Nc1ccc(C(=O)NN2C(=O)C(Cl)C2c2ccc(Cl)cc2)cc1 (stereo not given) |  |  |  | 41.6 µM |  | > 100 µM |  | 30.9 µM |  |  | > 100 µM | > 100 µM | > 100 µM
23 | COc1cc(OC)c(/C=C/S(=O)(=O)Cc2cnc(OC)c(N)c2)c(OC)c1 | < 0.01 µM | > 100 µM | < 0.0202 µM | > 100 µM | < 0.0262 µM | > 100 µM |  |  |  |  |  |  | 
24 | O=S(=O)(NC1=NCCN1C(=S)SN1CCn2c1nsc2=S)c1ccc(Br)cc1 | 33.7 µM | > 100 µM | 21.4 µM | 67.2 µM | 53.2 µM | > 100 µM | 44.5 µM | > 100 µM |  |  |  |  | 
25 | CC(=O)[O-].CC(=O)[O-].[Pt+2].c1cscn1.c1cscn1 | > 100 µM | > 100 µM | > 100 µM | > 100 µM | > 100 µM | > 100 µM | > 100 µM | > 100 µM |  |  |  |  | 

Source: PubChem BioAssay (NCI)
